# Assay results as given in patent US11352350B2, “IRAK degraders and uses thereof” (Kymera Therapeutics, Inc., priority 2018, dated 2022).
# Where two headings read alike, the source gives them in different places.
# Columns and labels:
# OCI-LY10 = test: CTG Cell Viability Assay - OCI-LY10; type: cell-based, human; conditions: OCI-LY10, 4 days, read-out: CTG Cell Viability Assay - OCI-LY10: Average external-IC50
# Protocol: Compound-mediated viability effect on OCI-LY10 or TMD8 was quantitatively determined using the CellTiter-Glo® Luminescent Cell Viability Assay kit from Promega (Catalog number G7570) following manufacturer's recommended procedures. […] Compounds were then added to the assay plate with final top concentration of 10 μM and 1:3 dilution series with total of 9 doses. The final DMSO concentration was normalized to 0.2%. The assay plates were incubated at 37° C. for 4 days under 5% CO2. Then the assay plate was equilibrated at room temperature for 10 minutes. […] The data was then analyzed by software Prism 7.0 from GraphPad and the dose response curves were fit using a three-parameter logistic equation to calculate IC50.
# IRAK4 = IRAK4 (Homo sapiens (Human), UniProt Q9NWZ3); test: IRAK4 MSD degradation in OCI-LY10; type: cell-based
# Protocol: Degradation of IRAK4 in OCI-LY10 was quantitatively measured using Meso Scale Discovery technology. […] Compounds were then added to the assay plates with a final top concentration of 1 to 10 μM in a 1:3 dilution series with total of 8 doses. The assay plates were then incubated for 4 to 24 hours at 37° C. under 5% CO2. […] To prepare MSD assay plates (Meso Scale Discovery Catalog number L15XA-3), the plates were coated with […] capture antibody (mouse Anti-IRAK4 antibody [2H9], ab119942) in PBS, at 40 μL/well. […] Cell lysates were then added to MSD assay plates and the plates were incubated at room temperature for 1 hour. The plates were then washed 3 times with 150 μL/well TBST buffer and 25 μL/well primary detection antibody (rabbit Anti-IRAK4 antibody [Y279], from Abcam. Catalog number ab32511, […]). The assay plates were then incubated at room temperature for 1 hour, washed 3 times with 150 μL/well TBST buffer and 25 µL/well secondary detection antibody, SULFO-TAG anti-rabbit antibody were added (anti rabbit antibody from Meso Scale Discovery, Catalog number R32AB-1, 1 μg/mL). The assay plates were then incubated at room temperature for 1 hour, washed 3 times with 150 μL/well TB ST buffer, and 150 μL/well MSD reading buffer (Meso Scale Discovery catalog number R92TC-2) was added. The plates were then analyzed by a MSD reader (Meso Scale Discovery, Model Quick Plex SQ 120). The data was then analyzed by software Prism 7.0 from GraphPad and the dose-depended IRAK4 degradation were fit using a three-parameter logistic equation to calculate DC50.
# [1] = OCI-LY10, 4 hrs, MSD, read-out: IRAK4 MSD degradation in OCI-LY10 at 4 hrs: Average external-Abs DC50
# [2] = OCI-LY10, 24 hrs, MSD, read-out: IRAK4 MSD degradation in OCI-LY10 at 24 hrs: Average external-Abs DC50
# IRAK4, sequence (Q9NWZ3 whole entry): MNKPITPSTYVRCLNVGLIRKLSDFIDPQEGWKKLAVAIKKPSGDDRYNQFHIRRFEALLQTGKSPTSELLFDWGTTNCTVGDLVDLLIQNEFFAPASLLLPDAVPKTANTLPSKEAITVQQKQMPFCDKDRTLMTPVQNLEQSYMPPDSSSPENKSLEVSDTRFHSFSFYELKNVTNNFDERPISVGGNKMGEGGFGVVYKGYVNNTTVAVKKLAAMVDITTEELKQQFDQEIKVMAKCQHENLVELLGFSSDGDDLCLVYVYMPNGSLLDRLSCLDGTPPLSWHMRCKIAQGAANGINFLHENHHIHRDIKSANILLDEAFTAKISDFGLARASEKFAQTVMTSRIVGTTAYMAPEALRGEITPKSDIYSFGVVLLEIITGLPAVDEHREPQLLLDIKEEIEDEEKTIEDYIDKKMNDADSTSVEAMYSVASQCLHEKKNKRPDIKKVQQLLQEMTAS
SMILES,"IC50 (OCI-LY10; Homo sapiens, OCI-Ly10, 96 h)","DC50 (IRAK4; OCI-LY10, 4 hrs, read-out: IRAK4 MSD degradation in OCI-LY10 at 4 hrs: DC50)","DC50 (IRAK4; OCI-LY10, 24 hrs, read-out: IRAK4 MSD degradation in OCI-LY10 at 24 hrs: DC50)",DC50 (IRAK4; [1]),DC50 (IRAK4; [2]),IC50 (OCI-LY10)
"CN1C(=O)CCC(N2C(=O)c3cccc(NCCCOCCCS(=O)(=O)N(C)C(=O)[C@H]4CC[C@H](n5cc(NC(=O)c6cnn7ccc(N8C[C@H]9C[C@@H]8CO9)nc67)c(C(F)F)n5)CC4)c3C2=O)C1=O (stereo in doubt) [I-490, N-[3-(difluoromethyl)-1-[4-[methyl-[3-[3-[[2-(1-methyl-2,6-dioxo-3-piperidyl)-1,3-dioxo-isoindolin-4-yl]amino]propoxy]propylsulfonyl]carbamoyl]cyclohexyl]pyrazol-4-yl]-5-(2-oxa-5-azabicyclo [2.2.1]heptan-5-yl)pyrazolo [1,5-a]pyrimidine-3-carboxamide]",> 1000 nM,100 to 1000 nM,> 1000 nM,,,
Cn1c(=O)n(C2CCC(=O)NC2=O)c2cccc(CCCOCCOCCNC(=O)[C@H]3CC[C@@H](n4cc(NC(=O)c5coc(-c6ccnc(NCC7CC7)c6)n5)c(C(F)F)n4)CC3)c21 (some centres unmarked) [I-15],> 1000 nM,,,10 to 100 nM,10 to 100 nM,
Cn1c(=O)n(C2CCC(=O)NC2=O)c2ccc(CCCOCCOCCOCCOCC(=O)N3CCN([C@H]4CC[C@H](Nc5ncnn6ccc(C7CCOCC7)c56)CC4)CC3)cc21 (some centres unmarked) [I-20],> 1000 nM,,,> 1000 nM,> 1000 nM,
Cn1c(=O)n(C2CCC(=O)NC2=O)c2ccc(CCCOCCC(=O)N3CCN([C@H]4CC[C@H](Nc5ncnc6[nH]cc(C7CCOCC7)c56)CC4)CC3)cc21 (some centres unmarked) [I-21],500 to 1000 nM,,,> 1000 nM,> 1000 nM,
Cn1c(=O)n(C2CCC(=O)NC2=O)c2ccc(CCCCCCC(=O)N3CCN([C@H]4CC[C@H](Nc5ncnc6[nH]cc(C7CCOCC7)c56)CC4)CC3)cc21 (some centres unmarked) [I-22],100 to 500 nM,,,> 1000 nM,> 1000 nM,
Cn1c(=O)n(C2CCC(=O)NC2=O)c2ccc(CCCCOCCCCNCC(=O)N3CCN([C@H]4CC[C@H](Nc5ncnc6[nH]cc(C7CCOCC7)c56)CC4)CC3)cc21 (some centres unmarked) [I-23],50 to 100 nM,,,10 to 100 nM,< 10 nM,
Cc1c[nH]c2ncnc(N[C@H]3CC[C@H](N4CCN(C(=O)CCOCCCc5ccc6c(c5)n(C)c(=O)n6C5CCC(=O)NC5=O)CC4)CC3)c12 (some centres unmarked) [I-24],> 1000 nM,,,> 1000 nM,> 1000 nM,
Cc1c[nH]c2ncnc(N[C@H]3CC[C@H](N4CCN(C(=O)COCCOCCOCCOCCCc5cccc6c5n(C)c(=O)n6C5CCC(=O)NC5=O)CC4)CC3)c12 (some centres unmarked) [I-25],> 1000 nM,,,> 1000 nM,> 1000 nM,
Cc1c[nH]c2ncnc(N[C@H]3CC[C@H](N4CCN(C(=O)COCCOCCOCCOCCCc5ccc6c(c5)n(C)c(=O)n6C5CCC(=O)NC5=O)CC4)CC3)c12 (some centres unmarked) [I-26],> 1000 nM,,,> 1000 nM,> 1000 nM,
Cc1ncsc1-c1ccc(CNC(=O)[C@@H]2C[C@@H](O)CN2C(=O)[C@@H](NC(=O)COCCOCCOCCOCC(=O)N2CCN(C3CCC(Nc4ncnc5cc(CC#N)ccc45)CC3)CC2)C(C)(C)C)cc1 (some centres unmarked) [I-49],> 1000 nM,,,> 1000 nM,,
Cc1ncsc1-c1ccc(CNC(=O)[C@@H]2C[C@@H](O)CN2C(=O)[C@@H](NC(=O)COCCOCCOCC(=O)N2CCN([C@H]3CC[C@H](Nc4ncnc5cc(CC#N)ccc45)CC3)CC2)C(C)(C)C)cc1 [I-50],> 1000 nM,,,> 1000 nM,,
N#CCc1ccc2c(NC3CCC(N4CCN(C(=O)COCCOCCOCCNc5cccc6c5C(=O)N(C5CCC(=O)NC5=O)C6=O)CC4)CC3)ncnc2c1 (centres unmarked) [I-51],> 1000 nM,,,> 1000 nM,,
N#CCc1ccc2c(N[C@H]3CC[C@H](N4CCN(C(=O)COCCOCCOCCOCCNc5cccc6c5C(=O)N(C5CCC(=O)NC5=O)C6=O)CC4)CC3)ncnc2c1 (some centres unmarked) [I-52],100 to 500 nM,,,> 1000 nM,,
Cn1c(=O)n(C2CCC(=O)NC2=O)c2cccc(CCCOCCOCCOCCOCC(=O)N3CCN([C@H]4CC[C@H](Nc5ncnc6[nH]cc(C7CCOCC7)c56)CC4)CC3)c21 (some centres unmarked) [I-53],> 1000 nM,,,100 to 1000 nM,10 to 100 nM,
CN(CCOCCNCc1ccc2c(c1)n(C)c(=O)n2C1CCC(=O)NC1=O)C[C@H]1CC[C@H](n2cc(NC(=O)c3coc(-c4ccnc(NCC5CC5)c4)n3)c(C(F)F)n2)CC1 (some centres unmarked) [I-107],> 1000 nM,,,< 10 nM,,
Cn1c(=O)n(C2CCC(=O)NC2=O)c2ccc(CCCOC3CCN(C[C@H]4CC[C@H](n5cc(NC(=O)c6coc(-c7ccnc(NCC8CC8)c7)n6)c(C(F)F)n5)CC4)CC3)cc21 (some centres unmarked) [I-118],> 1000 nM,,,< 10 nM,,
Cn1c(=O)n(C2CCC(=O)NC2=O)c2cccc(CCCOCC3CCN(C[C@H]4CC[C@H](n5cc(NC(=O)c6coc(-c7ccnc(NCC8CC8)c7)n6)c(C(F)F)n5)CC4)CC3)c21 (some centres unmarked) [I-120],> 1000 nM,,,< 10 nM,,
CN(CC1CCN(Cc2ccc3c(c2)n(C)c(=O)n3C2CCC(=O)NC2=O)CC1)C[C@H]1CC[C@H](n2cc(NC(=O)c3coc(-c4ccnc(NCC5CC5)c4)n3)c(C(F)F)n2)CC1 (some centres unmarked) [I-127],> 1000 nM,,,< 10 nM,< 10 nM,
CN(CCCOCCc1ccc2c(c1)n(C)c(=O)n2C1CCC(=O)NC1=O)C[C@H]1CC[C@H](n2cc(NC(=O)c3coc(-c4ccnc(NCC5CC5)c4)n3)c(C(F)F)n2)CC1 (some centres unmarked) [I-129],> 1000 nM,,,< 10 nM,,
CN(CCCc1cccc2c1n(C)c(=O)n2C1CCC(=O)NC1=O)C[C@H]1CC[C@H](n2cc(NC(=O)c3coc(-c4ccnc(NCC5CC5)c4)n3)c(C(F)F)n2)CC1 (some centres unmarked) [I-130],> 1000 nM,,,< 10 nM,,
CN(CCCOCCCNC(=O)c1ccc(CNCc2ccc(-c3ccc4c(cnn4CC4CC4)c3)cc2)cc1)C[C@H]1CC[C@H](n2cc(NC(=O)c3coc(-c4ccnc(NCC5CC5)c4)n3)c(C(F)F)n2)CC1 [I-131],> 1000 nM,,,> 1000 nM,> 1000 nM,
CN(CCCOCCCNC(=O)c1ccc(CNCc2ccc(-c3ccc4c(cnn4CC4CC4)c3)cc2)cc1)C(=O)[C@H]1CC[C@H](n2cc(NC(=O)c3coc(-c4ccnc(NCC5CC5)c4)n3)c(C(F)F)n2)CC1 [I-132],> 1000 nM,,,> 1000 nM,> 1000 nM,
CN(CCCOCCCN(C)C(=O)c1ccc(CNCc2ccc(-c3ccc4c(cnn4CC4CC4)c3)cc2)cc1)C[C@H]1CC[C@H](n2cc(NC(=O)c3coc(-c4ccnc(NCC5CC5)c4)n3)c(C(F)F)n2)CC1 [I-133],> 1000 nM,,,> 1000 nM,> 1000 nM,
CN(CCC1CCN(C(=O)c2ccc(CNCc3ccc(-c4ccc5c(cnn5CC5CC5)c4)cc3)cc2)CC1)C[C@H]1CC[C@H](n2cc(NC(=O)c3coc(-c4ccnc(NCC5CC5)c4)n3)c(C(F)F)n2)CC1 [I-134],> 1000 nM,,,> 1000 nM,> 1000 nM,
CN(CCCCCCCNC(=O)c1ccc(CNCc2ccc(-c3ccc4c(cnn4CC4CC4)c3)cc2)cc1)C[C@H]1CC[C@H](n2cc(NC(=O)c3coc(-c4ccnc(NCC5CC5)c4)n3)c(C(F)F)n2)CC1 [I-135],> 1000 nM,,,100 to 1000 nM,> 1000 nM,
Cn1c(=O)n(C2CCC(=O)NC2=O)c2cccc(CCCOC3CCN(C(=O)[C@H]4CC[C@H](n5cc(NC(=O)c6cnn7ccc(N8CCNCC8)nc67)c(C(F)F)n5)CC4)CC3)c21 (some centres unmarked) [I-136],> 1000 nM,,,< 10 nM,,
Cn1c(=O)n(C2CCC(=O)NC2=O)c2ccc(CCCOCCOCC(F)CNC(=O)c3cnc(Nc4ccc5cnccc5n4)cc3NC3CC3)cc21 (centres unmarked) [I-138],> 1000 nM,,,> 1000 nM,> 1000 nM,
COc1cc(C(=O)NCCCCCCN(C)C[C@H]2CC[C@H](n3cc(NC(=O)c4coc(-c5ccnc(NCC6CC6)c5)n4)c(C(F)F)n3)CC2)ccc1NC(=O)[C@@H]1N[C@@H](CC(C)(C)C)[C@](C#N)(c2ccc(Cl)cc2F)[C@H]1c1cccc(Cl)c1F [I-140],,,,> 1000 nM,> 1000 nM,> 1000 nM
COc1cc(C(=O)N2CCC(CCCN(C)C[C@H]3CC[C@H](n4cc(NC(=O)c5coc(-c6ccnc(NCC7CC7)c6)n5)c(C(F)F)n4)CC3)CC2)ccc1NC(=O)[C@@H]1N[C@@H](CC(C)(C)C)[C@](C#N)(c2ccc(Cl)cc2F)[C@H]1c1cccc(Cl)c1F [I-141],> 1000 nM,,,> 1000 nM,> 1000 nM,
